From US8445509B2, “Fused heterocyclic derivatives and use thereof” (Takeda Pharmaceutical Company Limited, priority 2008, dated 2013)

Legend:
[1] = target: T1, Tie2 intracellular domain protein (Homo sapiens, UniProt Q02763); experiment: TIE2 kinase inhibitory activity (AlphaScreen); type: biochemical
T1 construct: 50 ng/mL of Tie2 intracellular domain protein (Millipore); purchased Millipore

[2] = system: Human blood cell cancer cell line MV-4-11; experiment: Human blood cell cancer cell line MV-4-11 growth inhibitory test; type: cell-based; settings: MV4-11, 72 h, culture for 3 days; for inhibition at 1 µM: 1 μM test substance, read-out: inhibitory rate (%) at 1 μM
[3] = target: T2, FLT3 intracellular domain protein (Homo sapiens, UniProt P36888); experiment: Fms Like Tyrosine Kinase 3 (FLT3) kinase inhibitory activity (AlphaScreen); type: biochemical
T2 construct: 7.5 ng/ml of FLT3 intracellular domain protein (Millipore); purchased Millipore
T2 sequence (P36888 564-993 limits assumed): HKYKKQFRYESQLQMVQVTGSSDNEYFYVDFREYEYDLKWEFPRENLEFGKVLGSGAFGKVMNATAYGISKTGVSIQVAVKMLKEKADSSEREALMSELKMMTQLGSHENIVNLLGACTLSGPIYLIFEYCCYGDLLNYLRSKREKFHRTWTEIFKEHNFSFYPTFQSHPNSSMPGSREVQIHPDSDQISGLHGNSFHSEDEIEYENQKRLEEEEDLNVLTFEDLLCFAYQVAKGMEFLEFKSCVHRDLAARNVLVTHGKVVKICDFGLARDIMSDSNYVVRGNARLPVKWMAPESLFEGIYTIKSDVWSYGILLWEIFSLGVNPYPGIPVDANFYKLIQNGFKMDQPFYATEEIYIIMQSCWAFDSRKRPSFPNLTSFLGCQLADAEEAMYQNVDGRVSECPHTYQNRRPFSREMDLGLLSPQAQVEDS
Method in brief: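 FLT3 intracellular domain (7.5 ng/ml) and biotin-poly-Glu:Tyr (250 ng/mL), each as added, were preincubated 5 min with compound in Tris pH 7.5 with Mg²⁺, Mn²⁺, DTT and Tween-20. ATP was added (5 μM) for 10 min at 25 °C, then EDTA stop with streptavidin donor/anti-phosphotyrosine acceptor beads for 16 h. % inhibition was calculated against the no-compound control and the no-compound/no-ATP blank.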

[4] = system: Human umbilical vein-derived vascular endothelial cells (HUVEC); experiment: Vascular endothelial cell proliferation inhibitory test (VEGF-stimulated HUVEC); type: cell-based; settings: 120 h, 5 days of culture with VEGF
Method in brief: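 HUVEC (3000 cells/well) in medium with 3% FBS, cultured overnight, then given test substance plus VEGF (120 ng/mL in the added medium). After 5 days at 37 °C, Cell Counting Kit-8 was applied for 2-3 h and A450 read. IC50 relative to no-compound wells, by logistic nonlinear least-squares fit.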

T1 sequence (Q02763 770-1124 limits assumed): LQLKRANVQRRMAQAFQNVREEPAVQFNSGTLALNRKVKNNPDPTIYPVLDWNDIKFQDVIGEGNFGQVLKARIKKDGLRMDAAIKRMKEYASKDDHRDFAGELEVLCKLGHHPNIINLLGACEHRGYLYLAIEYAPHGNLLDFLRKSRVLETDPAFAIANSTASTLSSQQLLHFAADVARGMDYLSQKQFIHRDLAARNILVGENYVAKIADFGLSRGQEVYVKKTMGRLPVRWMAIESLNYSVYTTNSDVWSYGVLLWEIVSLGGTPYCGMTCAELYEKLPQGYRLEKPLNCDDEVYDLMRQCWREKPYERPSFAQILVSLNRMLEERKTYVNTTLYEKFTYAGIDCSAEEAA

SMILES	IC50 [1] [µM]	inhibition at 1 µM [2] [%]	IC50 [2] [µM]	IC50 [3] [µM]	IC50 [4] [µM]
CC1CCN(C(=O)Nc2ccc(Oc3ccc4nc(NC(=O)C5CC5)cn4c3)c(F)c2)C(=O)N1c1ccc(F)cc1 (stereo not shown) [Example 80, N-[4-({2-[(cyclopropylcarbonyl)amino]imidazo[1,2-a]pyridin-6-yl}oxy)-3-fluorophenyl]-3-(4-fluorophenyl)-4-methyl-2-oxotetrahydropyrimidine-1(2H)-carboxamide]	≤ 1	≥ 90	≤ 1	≤ 1	≤ 2
CC1=C(c2ccc(F)cc2)C(=O)N(C(=O)Nc2ccc(Oc3ccc4nc(NC(=O)C5CC5)cn4c3)c(F)c2)CC1 [Example 81, N-[4-({2-[(cyclopropylcarbonyl)amino]imidazo[1,2-a]pyridin-6-yl}oxy)-3-fluorophenyl]-5-(4-fluorophenyl)-4-methyl-6-oxo-3,6-dihydropyridine-1(2H)-carboxamide]	≤ 1	≥ 90	≤ 1	≤ 1	≤ 2
Cc1cc(C)n(-c2ccc(F)cc2)c(=O)c1C(=O)Nc1ccc(Oc2ccc3nc(NC(=O)C4CC4)cn3c2)c(F)c1 [Example 82, N-[4-({2-[(cyclopropylcarbonyl)amino]imidazo[1,2-a]pyridin-6-yl}oxy)-3-fluorophenyl]-1-(4-fluorophenyl)-4,6-dimethyl-2-oxo-1,2-dihydropyridine-3-carboxamide]	≤ 1	≥ 90	≤ 1	≤ 1	≤ 2
Cc1ccc(C(=O)Nc2ccc(Oc3ccc4nc(NC(=O)C5CC5)cn4c3)cc2F)[n+]([O-])c1-c1ccc(F)cc1 [Example 84, N-[4-({2-[(cyclopropylcarbonyl)amino]imidazo[1,2-a]pyridin-6-yl}oxy)-2-fluorophenyl]-6-(4-fluorophenyl)-5-methylpyridine-2-carboxamide 1-oxide]	≤ 1	≥ 90	≤ 1	≤ 1	≤ 2
Cc1ccc(C(=O)Nc2ccc(Oc3ccc4nc(NC(=O)C5CC5)cn4c3)c(F)c2)[n+]([O-])c1-c1cccc(F)c1 [Example 93, N-[4-({2-[(cyclopropylcarbonyl)amino]imidazo[1,2-a]pyridin-6-yl}oxy)-3-fluorophenyl]-6-(3-fluorophenyl)-5-methylpyridine-2-carboxamide 1-oxide]	≤ 1	≥ 90	≤ 1	≤ 1	≤ 2
